Entries after “also recorded” stand apart in the source; their conditions may differ.
Legend:
[1] = related amide-cyanoximes, Ref [1, 2] / [1, 3]; cited from earlier work
[2] = potentiometric pH titration for pKa (ionization constant); assay type: physicochemical; details: isopropyl alcohol (ISA)/water mixture, aqueous pKa, 23° C., Yasuda-Shedlovsky extrapolation to zero ISA
Description: Ionization constants for the new cyanoxime compound 1 [H(DECO)] were determined using a Sirius Analytical Instruments automated titration station (Sussex, UK) equipped with a temperature-controlled bath. The titration was performed three times at 23° C. in an isopropyl alcohol (ISA) water mixture as described below. The weighed amount of compound 1 (3.08 mg) was placed into a titration vial. Sixteen milliliters of ISA water was delivered automatically to the vial. The pH of the solution was adjusted to 10 by adding 0.5 M KOH automatically. The titration with 0.5M HCl was performed automatically until a pH value of 2.5 was reached. To perform the second and third titrations, an additional volume of ISA and water (1 mL and 1 mL) was delivered automatically to the titration vial, respectively. The datasets for the three titrations were combined in the RefinementPro program to create a Multiset for pKa calculation. Also, these datasets were combined and extrapolated to a zero ISA concentration.
The aqueous pKa was calculated with a Yasuda-Shedlovsky extrapolation in the RefinementPro software.

[3] = solubility observations in water and organic solvents; assay type: physicochemical

Compound | pKa (pH titration) [1] | pKa [2] | solubility in organic solvents ([3]; solvent named in the value) | solubility in water ([3]; water)
N#C/C(=N\O)C(N)=O [H(ACO)] | 5.034 ± 0.002 | – | – | –
CN(C)C(=O)/C(C#N)=N/O [H(DCO)] | 5.52 ± 0.03 | – | – | –
CCN(CC)C(=O)/C(C#N)=N/O [compound 1, 2-cyano-2-oximino-N,N′-diethylaminoacetamide] | – | 5.622 ± 0.005 | soluble in most organic solvents except hydrocarbons | not well soluble in water; also recorded: insoluble in water

From patent publication US9982188B2, “Near-infrared emitters” (MISSOURI STATE UNIVERSITY, priority 2015, dated 2018)
